In patent EP2246331A1, “NR2B-selective NMDA-receptor antagonists” (Westfälische Wilhelms-Universität Münster, priority 2009, dated 2010):

Tests used:
σ1 receptor = target: T1, σ1 receptor (Cavia porcellus, UniProt Q60492); assay: Receptor binding assay with [3H]-(+)-pentazocine on guinea pig brain membranes; details: 2 nM [3H]-(+)-pentazocine, guinea pig brain membranes; for Ki: 180 min at 37 °C, mean ± SEM, read-out: affinity to the σ1 receptor
T1 construct: tissue Harlan Winkelmann; host or cells: guinea pig brain membranes
Procedure: (§1) The pig brains were a donation of the local slaughterhouse (Coesfeld, Germany). Homogenizer: Elvehjem Potter (B. Braun Biotech International, Melsungen, Germany). Centrifuge: High-speed cooling centrifuge model Sorvall RC-5C plus (Thermo Fisher Scientific, Langenselbold, Germany). Filter: Printed Filtermat Typ A and B (Perkin Elmer LAS, Rodgau-Jügesheim, Germany), presoaked in 0.5% aqueous polyethylenimine for 2 h at room temperature before use. […] Before filling to the final volume of 1000 mL, the pH of the solution was adjusted to pH=7.5 by dropwise addition of 1M HCl. The filtration was carried out with a MicroBeta FilterMate-96 Harvester (Perkin Elmer). The scintillation analysis was performed using Meltilex (Typ A or B) solid scintillator (Perkin Elmer). The solid scintillator was melted on the filtermat at a temperature of 95 °C for 5 minutes. After solidifying of the scintillator at room temperature, the scintillation was measured using a MicroBeta Trilux scintillation analyzer (Perkin Elmer). The overall counting efficiency was 20 %. All experiments were carried out in triplicates using standard 96-well-multiplates (Diagonal, Muenster, Germany). […] The Ki-values are given as mean value ± SEM from three independent experiments.
Determination of the affinity to the σ1 receptor
Five guinea pig brains (Harlan Winkelmann, Borchen, Germany) were homogenized with the potter (500-800 rpm, 10 up-and-down strokes) in 6 volumes of cold 0.32 M sucrose. The suspension was centrifuged at 1200 x g for 10 min at 4 °C. […] This procedure was repeated twice. The final pellet was resuspended in 5 to 6 volumes of buffer, the protein concentration was determined according to the method of Bradford using bovine serum albumin as standard, and subsequently the preparation was frozen (-80 °C) in 1.5 mL portions containing about 1.5 mg protein/mL.
The test was performed with the radioligand [^3H]-(+)-pentazocine (42,5 Ci/mmol; Perkin Elmer). […] The incubation was terminated by rapid filtration through the presoaked filtermats using a cell harvester. After washing each well five times with 300 µl of water, the filtermats were dried at 95 °C. The bound radioactivity trapped on the filters was counted in the scintillation analyzer as described in the "General procedures" section. The non-specific binding was determined with 10 µM unlabeled (+)-pentazocine.

[1] = target: T2, polyamine binding site of the NR2B subunit of the NMDA receptor (Homo sapiens, UniProt Q05586+Q13224); assay: Filtration-based receptor binding assay with [3H]-Ifenprodil as radioligand; details: 5 nM [3H]-Ifenprodil; membrane homogenates of mouse L(tk-) cells transfected with NR1-1a/NR2B; 180 min at 37 °C; Ki mean of three experiments ± S.E.M.; read-out: affinity to the NR2B binding site of the NMDA receptor
T2 construct: expressed in transfected cells; host or cells: mouse L(tk-) cells, dexamethasone-induced; gift from D. Steinhilber, University of Frankfurt
Procedure: Mouse L(tk-) cells stably transfected with the dexamethasone-inducible eukaryotic expression vectors pMSG NR1-1a, pMSG NR2B in a 1:5 ratio were a generous gift from D. Steinhilber (Department of Pharmacy, University of Frankfurt, Germany). The transformed L(tk-) cells were grown in Modified Earl's Medium (MEM) containing 10% of standardized FCS (Biochrom AG, Berlin, Germany). The expression of the NMDA receptor at the cell surface was induced after the cell density of the adherent growing cells had reached approximately 90% of confluency. For the induction, the original growth medium was replaced by growth medium containing 4 µM dexamethasone and 4 µM ketamine (final concentration). After 24 h the cells were harvested by trypsination and pelleted (10 min, 5,000 x g, Hettich Rotina 35R centrifuge, Tuttlingen, Germany).
For the binding assay, the cell pellet was resuspended in PBS buffer and the number of cells was determined using an improved Neubauer's counting chamber (VWR, Darmstadt, Germany). Subsequently, the cells were lysed by sonication (4 °C, 6 x 10 s cycles with breaks of 10 sec). The resulting cell fragments were centrifuged with a high performance cool centrifuge (20,000 x g, 4 °C, Sorvall RC-5 plus, Thermo Scientific). The supernatant was discarded and the pellet resuspended in a defined volume of phosphate buffer saline (PBS) yielding cell fragments of approximately 500,000 cells/mL. The suspension of membrane homogenates was sonicated again (4 °C, 2 x 10 s cycles with a break of 10 min) and stored at -80 °C.
The cell membrane suspension was added last. All experiments were carried out in triplicates. The incubation was terminated by rapid filtration through filtermats using a cell harvester (MicroBeta FilterMate-96 Harvester, Perkin Elmer). Prior to harvesting, the filtermats were presoaked in 0.5% aqueous polyethylenimine for 2 h at room temperature. After washing each well five times with 300 µL of water, the filtermats were dried at 95 °C. Subsequently, the solid scintillator was placed on the filtermat and melted at 95 °C. After 5 min, the solid scintillator was allowed to solidify at room temperature. The bound radioactivity trapped on the filters was counted in the scintillation analyzer (Microbeta Counter, Perkin Elmer). The overall counting efficiency was 20%.
The protein concentration was determined by the method of Bradford, modified by Stoscheck. The Bradford solution was prepared by dissolving 5 mg of Coomassie Brilliant Blue G 250 in 2.5 mL EtOH (95%, v/v). 10 mL deionized H2O and 5 mL phosphoric acid (85%, m/v) were added to this solution, the mixture was stirred and filled up to a total volume of 50.0 mL with deionized water. The calibration was carried out using bovine serum protein as a standard in concentrations between 0.1 and 10 mg /L. In a 96-well standard multiplate, 10 µL of the calibration solution or 10 µL of the membrane receptor preparation were mixed with 190 µL of the Bradford solution, respectively.
Kd and Bmax were calculated as described in the "Data analysis" section.
Data analysis was performed with Graph Pad Prism® Software, Version 3.0 (Graph Pad Software Inc., San Diego, CA, USA).
Saturation analyses were made by nonlinear regression using the "one-site-saturation" calculation method. The IC50 values of the test compounds used in the competitive binding experiments were determined by nonlinear regression using the "one-site-competition" calculation method. […] The Ki values are given as mean values from three independent experiments ± Standard Error of the Mean (S.E.M).

σ2 receptor = target: T3, σ2 receptor (Rattus norvegicus, UniProt Q5U3Y7); assay: Receptor binding assay with [3H]-ditolylguanidine on rat liver membranes; details: 3 nM [3H]-ditolylguanidine with 2 µM (+)-pentazocine, 180 min at room temperature, mean ± SEM, read-out: affinity to the σ2 receptor
T3 construct: tissue Harlan Winkelmann; host or cells: rat liver membranes
T3 sequence (Q5U3Y7 1-176): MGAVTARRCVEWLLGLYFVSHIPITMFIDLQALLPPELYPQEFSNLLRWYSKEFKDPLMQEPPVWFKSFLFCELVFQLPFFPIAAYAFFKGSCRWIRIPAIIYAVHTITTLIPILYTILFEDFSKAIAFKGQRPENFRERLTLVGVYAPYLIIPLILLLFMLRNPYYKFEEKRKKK
Procedure: as §1
Determination of affinity to the σ2 receptor
Two rat livers (Harlan Winkelmann, Borchen, Germany) were cut into smaller pieces and homogenized with the potter (500-800 rpm, 10 up-and-down strokes) in 6 volumes of cold 0.32 M sucrose. The suspension was centrifuged at 1200 x g for 10 min at 4 °C. The supernatant was separated and centrifuged at 31000 x g for 20 min at 4 °C. The pellet was resuspended in 5-6 volumes of buffer (50 mM TRIS, pH 8.0) and incubated at room temperature for 30 minutes. After the incubation, the suspension was centrifuged again at 31000 x g for 20 min at 4 °C. The final pellet was resuspended in 5 to 6 volumes of buffer, the protein concentration was determined according to the method of Bradford using bovine serum albumin as standard, and subsequently the preparation was frozen (-80 °C) in 1.5 mL portions containing about 2 mg protein/mL.
(50 Ci/mmol; ARC). […] The incubation was terminated by rapid filtration through the presoaked filtermats using a cell harvester. After washing each well five times with 300 µL of water, the filtermats were dried at 95 °C. Subsequently, the solid scintillator was placed on the filtermat and melted at 95 °C. The bound radioactivity trapped on the filters was counted in the scintillation analyzer as described in the "General procedures" section.

[2] = target: phencyclidine binding site of the NMDA receptor; details: radioligand constant; T. Utech, Dissertation, 2003, Universität Freiburg; cited from earlier work

T1 sequence (Q60492 whole entry): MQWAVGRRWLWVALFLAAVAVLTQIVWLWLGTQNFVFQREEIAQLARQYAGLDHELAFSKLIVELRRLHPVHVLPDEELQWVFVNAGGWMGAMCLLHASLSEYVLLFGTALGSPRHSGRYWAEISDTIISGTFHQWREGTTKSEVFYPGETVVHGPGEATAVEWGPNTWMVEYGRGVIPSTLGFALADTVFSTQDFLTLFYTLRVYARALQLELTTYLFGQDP
T2 sequence (Q13224 27-1484, other chains not shown): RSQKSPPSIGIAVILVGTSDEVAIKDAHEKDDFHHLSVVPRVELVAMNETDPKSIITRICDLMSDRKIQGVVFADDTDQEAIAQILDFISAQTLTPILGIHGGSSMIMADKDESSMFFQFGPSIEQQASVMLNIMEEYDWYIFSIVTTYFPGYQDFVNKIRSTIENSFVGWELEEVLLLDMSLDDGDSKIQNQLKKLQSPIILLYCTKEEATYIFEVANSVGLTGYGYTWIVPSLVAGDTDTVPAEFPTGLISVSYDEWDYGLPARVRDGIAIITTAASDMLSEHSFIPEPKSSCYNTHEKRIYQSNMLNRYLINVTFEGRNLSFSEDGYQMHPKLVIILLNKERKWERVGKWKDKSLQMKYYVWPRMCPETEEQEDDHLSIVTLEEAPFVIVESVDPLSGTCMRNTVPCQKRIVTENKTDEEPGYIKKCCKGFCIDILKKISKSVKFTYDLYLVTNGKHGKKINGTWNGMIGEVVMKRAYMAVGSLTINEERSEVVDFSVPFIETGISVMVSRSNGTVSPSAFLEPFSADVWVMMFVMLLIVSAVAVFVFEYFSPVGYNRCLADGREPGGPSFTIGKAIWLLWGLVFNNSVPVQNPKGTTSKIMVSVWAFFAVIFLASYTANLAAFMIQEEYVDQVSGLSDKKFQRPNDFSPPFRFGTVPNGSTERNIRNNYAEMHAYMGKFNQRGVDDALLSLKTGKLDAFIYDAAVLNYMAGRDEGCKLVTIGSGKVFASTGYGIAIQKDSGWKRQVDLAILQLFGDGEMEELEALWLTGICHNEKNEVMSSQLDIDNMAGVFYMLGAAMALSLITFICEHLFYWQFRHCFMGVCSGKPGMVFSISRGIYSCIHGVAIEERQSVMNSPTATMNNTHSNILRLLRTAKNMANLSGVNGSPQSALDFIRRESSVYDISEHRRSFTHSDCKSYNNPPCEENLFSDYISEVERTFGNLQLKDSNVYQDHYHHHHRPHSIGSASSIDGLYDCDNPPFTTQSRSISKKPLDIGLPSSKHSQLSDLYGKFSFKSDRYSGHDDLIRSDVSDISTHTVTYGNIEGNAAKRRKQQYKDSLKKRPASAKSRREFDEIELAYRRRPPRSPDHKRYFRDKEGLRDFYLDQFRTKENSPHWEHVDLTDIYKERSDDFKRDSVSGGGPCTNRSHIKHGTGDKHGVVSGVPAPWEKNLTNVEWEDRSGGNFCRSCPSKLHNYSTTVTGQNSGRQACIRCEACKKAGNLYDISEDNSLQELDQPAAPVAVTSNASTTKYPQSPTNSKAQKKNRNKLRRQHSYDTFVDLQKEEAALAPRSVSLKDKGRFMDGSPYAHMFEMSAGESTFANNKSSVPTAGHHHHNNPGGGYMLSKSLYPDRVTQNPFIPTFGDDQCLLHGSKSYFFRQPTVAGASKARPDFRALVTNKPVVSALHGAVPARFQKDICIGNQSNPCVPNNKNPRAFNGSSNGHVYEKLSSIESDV

Compound	Ki (σ1 receptor)	Ki [1]	Ki (σ2 receptor)	inhibition of the σ1 receptor only at concentrations above (σ1 receptor; given as above 1 µM or 10 µM)	Kd [2]
OC1CN(C2CCC3(CC2)OCCO3)CCc2cc(OCc3ccccc3)ccc21 (stereo not shown) [formula (25)]	183 nM	1.12 nM	753 nM	–	–
O=C(c1ccccc1)N1CCC(N2CCc3cc(O)ccc3C(O)C2)CC1 (stereo not shown) [formula (26)]	–	393 nM	97.7 nM	above 1 µM	–
C[C@@H]1[C@H](O)c2ccc(O)cc2CCN1CCCCc1ccccc1 [formula (27)]	85.5 nM	12.3 nM	142 nM	–	–
C[C@H]1[C@@H](O)c2ccc(O)cc2CCN1CCCCc1ccccc1 [formula (28)]	393 nM	22.1 nM	103 nM	–	–
(+)-MK-801	–	–	–	–	2.26 nM
